Among the data in patent US7153874B2, “Imidazole derivatives” (Hoffmann-La Roche Inc., priority 2003, dated 2006) are melting point and Ki values, retold here.

One data set has as its target T1, human mGlu 5a receptor (Homo sapiens, UniProt P41594).
T1 construct: expressed in transfected cells; host or cells: EBNA cells (transient transfection); cell membrane homogenates
Briefly: [3H]MPEP competition binding on membranes of EBNA cells transfected with human mGlu 5a receptor. The note with it: read-out: Ki (mGluR5). The method, then:
For binding experiments, cDNA encoding human mGlu 5a receptor was transiently transfected into EBNA cells using a procedure described by Schlaeger and Christensen [Cyto-technology 15:1–13 (1998)]. Cell membrane homogenates were stored at −80° C. until the day of assay where upon they were thawed and resuspended and polytronised in 15 mM Tris-HCl, 120 mM NaCl, 100 mM KCl, 25 mM CaCl2, 25 mM MgCl2 binding buffer at pH 7.4 to a final assay concentration of 20 μg protein/well.
Saturation isotherms were determined by addition of twelve [^3H]MPEP concentrations (0.04–100 nM) to these membranes (in a total volume of 200 μl) for 1 h at 4° C. Competition experiments were performed with a fixed concentration of [^3H]MPEP (2 nM) and IC50 values of test compounds evaluated using 11 concentrations (0.3–10,000 nM). Incubations were performed for 1 h at 4° C.
At the end of the incubation, membranes were filtered onto unifilter (96-well white microplate with bonded GF/C filter preincubated 1 h in 0.1% PEI in wash buffer, Packard BioScience, Meriden, Conn.) with a Filtermate 96 harvester (Packard BioScience) and washed 3 times with cold 50 mM Tris-HCl, pH 7.4 buffer. Nonspecific binding was measured in the presence of 10 μM MPEP. The radioactivity on the filter was counted (3 min) on a Packard Top-count microplate scintillation counter with quenching correction after addition of 45 μl of microscint 40 (Canberra Packard S. A., Zürich, Switzerland) and shaking for 20 min.
The inhibition (antagonists) curves were fitted with a four parameter logistic equation giving IC50, and Hill coefficient using an iterative non linear curve fitting software (Xcel fit).
The Ki value is defined by the following formula: Ki=IC50/[1+L/Kd] in which the IC50 values are those concentrations of the compounds tested which cause 50% inhibition of the competing radioligand ([^3H]MPEP). L is the concentration of radioligand used in the binding experiment and the Kd value of the radioligand is empirically determined for each batch of membranes prepared.

pKi: −log10 of the molar value. Counter-ions that a name gives are not always drawn.

T1 sequence (P41594 21-1180 isoform P41594-2 limits assumed): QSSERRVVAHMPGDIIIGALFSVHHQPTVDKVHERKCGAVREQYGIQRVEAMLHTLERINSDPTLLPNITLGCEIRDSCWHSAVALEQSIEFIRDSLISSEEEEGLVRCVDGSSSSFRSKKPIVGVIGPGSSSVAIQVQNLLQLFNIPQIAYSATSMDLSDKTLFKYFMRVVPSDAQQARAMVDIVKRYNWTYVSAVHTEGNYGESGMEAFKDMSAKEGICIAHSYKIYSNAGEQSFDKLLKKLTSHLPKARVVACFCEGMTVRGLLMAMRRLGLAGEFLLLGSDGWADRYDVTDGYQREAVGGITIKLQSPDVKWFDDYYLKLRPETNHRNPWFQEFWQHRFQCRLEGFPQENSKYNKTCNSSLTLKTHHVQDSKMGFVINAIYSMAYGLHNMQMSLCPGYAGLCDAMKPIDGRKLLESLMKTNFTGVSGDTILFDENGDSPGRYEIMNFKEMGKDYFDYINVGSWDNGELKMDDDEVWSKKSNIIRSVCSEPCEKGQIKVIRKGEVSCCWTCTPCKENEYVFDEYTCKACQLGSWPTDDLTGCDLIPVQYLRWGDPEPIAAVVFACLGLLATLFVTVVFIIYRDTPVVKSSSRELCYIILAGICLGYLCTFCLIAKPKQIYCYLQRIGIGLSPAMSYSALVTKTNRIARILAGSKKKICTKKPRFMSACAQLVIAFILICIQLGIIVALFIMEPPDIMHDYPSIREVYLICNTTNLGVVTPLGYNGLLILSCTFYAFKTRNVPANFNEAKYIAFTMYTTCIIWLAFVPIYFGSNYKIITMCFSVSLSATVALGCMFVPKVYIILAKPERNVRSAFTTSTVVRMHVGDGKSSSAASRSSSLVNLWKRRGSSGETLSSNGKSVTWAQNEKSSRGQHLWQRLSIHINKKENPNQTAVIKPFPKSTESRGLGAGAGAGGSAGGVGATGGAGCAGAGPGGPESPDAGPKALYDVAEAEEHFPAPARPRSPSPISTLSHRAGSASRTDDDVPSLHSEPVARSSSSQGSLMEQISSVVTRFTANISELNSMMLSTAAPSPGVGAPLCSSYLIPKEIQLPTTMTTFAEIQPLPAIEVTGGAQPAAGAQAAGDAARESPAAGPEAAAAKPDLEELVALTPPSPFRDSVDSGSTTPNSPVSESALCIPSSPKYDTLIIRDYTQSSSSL

On to `COc1cc(-n2cc(C#Cc3ccnc(C)c3)nc2C)ccn1` (as salt: HCl) [Compound 69, 2-Methoxy-4-[2-methyl-4-(2-methyl-pyridin-4-ylethynyl)-imidazol-1-yl]-pyridine], for which the melting point was in the range of 145 to 147 °C.
On the same count and under the same terms, with `Cc1cc(C#Cc2cn(-c3ccc(F)cc3)c(C)n2)ccn1` [Compound 1, 4-[1-(4-Fluoro-phenyl)-2-methyl-1H-imidazol-4-ylethynyl]-2-methyl-pyridine] the figure was 151 °C.
As for `Cc1cc(C#Cc2cn(-c3ccc(Cl)c(Cl)c3)c(C)n2)ccn1` [Compound 2, 4-[1-(3,4-Dichloro-phenyl)-2-methyl-1H-imidazol-4-ylethynyl]-2-methyl-pyridine hydrochloride], the pKi at human mGlu 5a receptor was 7.74.
The same measure, in the same setting: with `Cc1cc(C#Cc2cn(-c3ccc(F)c(F)c3)c(C)n2)ccn1` [Compound 4, 4-[1-(3,4-difluoro-phenyl)-2-methyl-1H-imidazol-4-ylethynyl]-2-methyl-pyridine] the figure was 7.60; with `Cc1cc(C#Cc2cn(-c3cccc(C(F)(F)F)c3)c(C)n2)ccn1` [Compound 7, 2-methyl-4-[2-methyl-1-(3-trifluoromethyl-phenyl)-1H-imidazol-4-ylethynyl]-pyridine], 7.62.
For `Cc1cc(C#Cc2cn(-c3ncccn3)c(C)n2)ccn1` [Compound 8, 2-[2-Methyl-4-(2-methyl-pyridin-4-ylethynyl)-imidazol-1-yl]-pyrimidine], the melting point lay in the range of 164 to 165 °C. Also, the pKi on human mGlu 5a receptor was 7.13.
As to `Cc1cc(C#Cc2cn(-c3ccc4c(ccn4C)c3)c(C)n2)ccn1` [Compound 18, 1-methyl-5-[2-methyl-4-(2-methyl-pyridin-4-ylethynyl)-imidazol-1-yl]-1H-indole], at human mGlu 5a receptor, the pKi was 7.35.
Same read-out and setting: next, `Cc1cc(C#Cc2cn(-c3nccc(C(F)(F)F)n3)c(C)n2)ccn1` [Compound 21, 2-[2-methyl-4-(2-methyl-pyridin-4-ylethynyl)-imidazol-1-yl]-4-trifluoromethyl-pyrimidine]: 7.77.
Still for that read-out and setting: with `COc1ccnc(-n2cc(C#Cc3ccnc(C)c3)nc2C)n1` [Compound 22, 4-methoxy-2-[2-methyl-4-(2-methyl-pyridin-4-ylethynyl)-imidazol-1-yl]-pyrimidine] the figure was 7.74.
Still for that read-out and setting: with `Cc1cc(C#Cc2cn(-c3nccc(Cl)n3)c(C)n2)ccn1` [Compound 29, 4-chloro-2-[2-methyl-4-(2-methyl-pyridin-4-ylethynyl)-imidazol-1-yl]-pyrimidine] the figure was 7.60.
Consider `Cc1cc(C#Cc2cn(-c3cncc(C4CC4)n3)c(C)n2)ccn1` [Compound 56, 2-cyclopropyl-6-[2-methyl-4-(2-methyl-pyridin-4-ylethynyl)-imidazol-1-yl]-pyrazine], for which the pKi at human mGlu 5a receptor is 7.57.
For `Cc1cc(C#Cc2cn(-c3cccc(C4CC4)n3)c(C)n2)ccn1` [Compound 57, 2-cyclopropyl-6-[2-methyl-4-(2-methyl-pyridin-4-ylethynyl)-imidazol-1-yl]-pyridine], the pKi on human mGlu 5a receptor was 7.80.
Same read-out and setting: with `COc1cccc(-n2cc(C#Cc3ccnc(C)c3)nc2C)n1` [Compound 68, 2-Methoxy-6-[2-methyl-4-(2-methyl-pyridin-4-ylethynyl)-imidazol-1-yl]-pyridine] the figure was 7.74; with `Cc1cc(C#Cc2cn(-c3cccc(N(C)C)n3)c(C)n2)ccn1` [Compound 71, dimethyl-{6-[2-methyl-4-(2-methyl-pyridin-4-ylethynyl)-imidazol-1-yl]-pyridin-2-yl}-amine], 7.72.
Same read-out and setting: with `Cc1cc(C#Cc2nc(C)n(-c3ccc(F)cc3)c2C)ccn1` [Compound 88, 4-[1-(4-Fluoro-phenyl)-2,5-dimethyl-1H-imidazol-4-ylethynyl]-2-methyl-pyridine] the figure was 7.48.
On the same count and under the same terms, with `Cc1cc(C#Cc2nc(C)n(-c3ccc(F)cc3)c2C=O)ccn1` [Compound 89, 3-(4-Fluoro-phenyl)-2-methyl-5-(2-methyl-pyridin-4-ylethynyl)-3H-imidazole-4-carbaldehyde] the figure was 7.19.

The term melting point denotes the temperature of the solid-liquid transition. One may read the pKi as −log10 of the Ki, conventionally taken in molar units.
